The target of test [1] is human orexin-2 receptor (Homo sapiens (Human), UniProt O43614). Put plainly: hOX2R FLIPR Ca2+ flux assay. As to conditions: CHO cells expressing human orexin-2 receptor; agonist 70 pM Ala-6,12 orexin-A. The class given is cell-based. The protocol:
In a typical experiment the OX1 and OX2 receptor antagonistic activity of the compounds of the present invention was determined in accordance with the following experimental method. For intracellular calcium measurements, Chinese hamster ovary (CHO) cells expressing the rat orexin-1 receptor or the human orexin-2 receptor, are grown in Iscove's modified DMEM containing 2 mM L-glutamine, […], 1% hypoxanthine-thymidine supplement, 100 U/ml penicillin, 100 μg/ml streptomycin and 10% heat-inactivated fetal calf serum (FCS). The cells are seeded at 20,000 cells/well into Becton-Dickinson black 384-well clear bottom sterile plates coated with poly-D-lysine. All reagents were from GIBCO-Invitrogen Corp. The seeded plates are incubated overnight at 37° C. and 5% CO2. Ala-6,12 human orexin-A as the agonist is prepared as a 1 mM stock solution in 1% bovine serum albumin (BSA) and diluted in assay buffer (HBSS containing 20 mM HEPES, 0.1% BSA and 2.5 mM probenecid, pH7.4) for use in the assay at a final concentration of 70 pM. Test compounds are prepared as 10 mM stock solution in DMSO, then diluted in 384-well plates, first in DMSO, then assay buffer. On the day of the assay, cells are washed 3 times with 100 μl assay buffer and then incubated for 60 min (37° C., 5% CO2) in 60 μl assay buffer containing […] Fluo-4AM ester, 0.02% pluronic acid, and 1% BSA. The dye loading solution is then aspirated and cells are washed 3 times with 100 μl assay buffer. 30 μl of that same buffer is left in each well. Within the Fluorescent Imaging Plate Reader (FLIPR, Molecular Devices), test compounds are added to the plate in a volume of 25 μl, incubated for 5 min and finally 25 μl of agonist is added. Fluorescence is measured for each well at 1 second intervals for 5 minutes and the height of each fluorescence peak is compared to the height of the fluorescence peak induced by 70 pM Ala-6,12 orexin-A with buffer in place of antagonist. For each antagonist, IC50 value (the concentration of compound needed to inhibit 50% of the agonist response) is determined. Alternatively, compound potency can be assessed by a radioligand binding assay (described in Bergman et. al. Bioorg. Med. Chem. Lett. 2008, 18, 1425-1430) in which the inhibition constant (Ki) is determined in membranes prepared from CHO cells expressing either the OX1 or OX2 receptor. The intrinsic orexin receptor antagonist activity of a compound which may be used in the present invention may be determined by these assays.

Test [2] addresses hOX1R (Homo sapiens, UniProt O43613). Put plainly: hOX1R FLIPR Ca2+ flux assay. In kind it is cell-based. On the technique in general: Calcium assays in cells follow changes in intracellular calcium, usually with a dye or a luminescent sensor.
[3] abbreviates: CHO cells expressing orexin-1 receptor, agonist 70 pM Ala-6,12 orexin-A, read-out: hOX1R FLIPR IC50.

Where two headings read alike, the source gives them in different places.

human orexin-2 receptor, sequence (O43614 whole entry): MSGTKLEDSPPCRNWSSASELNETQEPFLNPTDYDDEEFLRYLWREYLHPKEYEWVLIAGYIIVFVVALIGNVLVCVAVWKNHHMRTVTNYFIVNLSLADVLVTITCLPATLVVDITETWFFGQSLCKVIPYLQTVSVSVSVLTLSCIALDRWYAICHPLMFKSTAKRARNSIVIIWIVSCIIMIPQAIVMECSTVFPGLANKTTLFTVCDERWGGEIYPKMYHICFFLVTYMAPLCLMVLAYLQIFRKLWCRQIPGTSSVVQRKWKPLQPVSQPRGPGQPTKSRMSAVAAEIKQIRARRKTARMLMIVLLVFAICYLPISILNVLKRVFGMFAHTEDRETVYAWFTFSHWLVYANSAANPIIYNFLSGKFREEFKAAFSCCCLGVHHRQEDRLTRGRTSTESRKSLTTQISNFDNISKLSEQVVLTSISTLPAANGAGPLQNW

With `Cc1oc(C[C@H]2CCCCN2C(=O)c2cccnc2OCC(F)F)nc1C(C)(C)O` [Example 16, (R)-(2-(2,2-difluoroethoxy)pyridin-3-yl)(2-((4-(2-hydroxypropan-2-yl)-5-methyloxazol-2-yl)methyl)piperidin-1-yl)methanone], the IC50 in test [1] is 0.049 µM; in test [2] (setting [3]), 0.373 µM.
The matching figures for `Cc1oc(C[C@H]2CCCCN2C(=O)c2ccccc2OC(F)(F)F)nc1C(C)(C)O` [Example 9, (R)-(2-((4-(2-hydroxypropan-2-yl)-5-methyloxazol-2-yl)methyl)piperidin-1-yl)(2-(trifluoromethoxy)phenyl) methanone]: 0.109 µM and 0.348 µM.
On to `Cc1oc(C[C@H]2CCCCN2C(=O)c2nccnc2-n2cccn2)nc1C(C)(C)O` [Example 26, (R)-(3-(1H-pyrazol-1-yl)pyrazin-2-yl)(2-((4-(2-hydroxypropan-2-yl)-5-methyloxazol-2-yl)methyl)piperidin-1-yl)methanone], for which the IC50 was 0.186 µM in test [1] and 1.41 µM in test [2] (setting [3]).
On the same counts, the results for `Cc1oc(C[C@H]2CCCCN2C(=O)c2ccccc2OCC(F)F)nc1C(C)(C)O` [Example 20, (R)-(2-(2,2-difluoroethoxy)phenyl)(2-((4-(2-hydroxypropan-2-yl)-5-methyloxazol-2-yl)methyl)piperidin-1-yl)methanone] are 0.112 µM and 0.69 µM.
The matching figures for `Cc1oc(C[C@H]2CCCCN2C(=O)c2ncccc2-c2ccccc2)nc1C(C)(C)O` [Example 25, (R)-(2-((4-(2-hydroxypropan-2-yl)-5-methyloxazol-2-yl)methyl)piperidin-1-yl)(3-phenylpyridin-2-yl)methanone]: 0.127 µM and 0.24 µM.
Regarding `Cc1oc(C[C@H]2CCCCN2C(=O)c2ccccc2C2CC2)nc1C(C)(C)O` [Example 3, (R)-(2-cyclopropylphenyl)(2-((4-(2-hydroxypropan-2-yl)-5-methyloxazol-2-yl)methyl)piperidin-1-yl)methanone], the IC50 in test [1] amounted to 0.017 µM; in test [2], 0.212 µM.
With `Cc1oc(C[C@H]2CCCCN2C(=O)c2ccccc2N2CCCC2)nc1C(C)(C)O` [Example 7, (R)-(2-((4-(2-hydroxypropan-2-yl)-5-methyloxazol-2-yl)methyl)piperidin-1-yl)(2-(pyrrolidin-1-yl)phenyl)methanone], the half-inhibitory concentration (IC50) in test [1] stood at 0.051 µM; in test [2] (setting [3]), 0.067 µM.
On to `Cc1oc(C[C@H]2CCCCN2C(=O)c2cccnc2OC(C)C)nc1C(C)(C)O` [Example 6, (R)-(2-((4-(2-hydroxypropan-2-yl)-5-methyloxazol-2-yl)methyl)piperidin-1-yl)(2-isopropoxypyridin-3-yl)methanone], for which the values for the IC50 in test [1] and in test [2] (setting [3]) were 0.036 µM and 0.223 µM, respectively.
As to `CCOc1ncccc1C(=O)N1CCCC[C@@H]1Cc1nc(C(C)(C)O)c(C)o1` [Example 2, (R)-(2-ethoxypyridin-3-yl)(2-((4-(2-hydroxypropan-2-yl)-5-methyloxazol-2-yl)methyl)piperidin-1-yl)methanone], the IC50 in test [1] is 0.02 µM; in test [2] (setting [3]), 0.152 µM.
For `Cc1oc(C[C@H]2CCCCN2C(=O)c2ccccc2-n2nccn2)nc1C(C)(C)O` [Example 1, (R)-(2-(2H-1,2,3-triazol-2-yl)phenyl)(2-((4-(2-hydroxypropan-2-yl)-5-methyloxazol-2-yl)methyl)piperidin-1-yl)methanone], the 50% inhibitory concentration (IC50) in test [1] stood at 0.014 µM; in test [2] (setting [3]), 0.018 µM.
The matching figures for `Cc1oc(C[C@H]2CCCCN2C(=O)c2ccccc2OCC(F)(F)F)nc1C(C)(C)O` [Example 17, (R)-(2-((4-(2-hydroxypropan-2-yl)-5-methyloxazol-2-yl)methyl)piperidin-1-yl)(2-(2,2,2-trifluoroethoxy)phenyl)methanone]: 0.099 µM and 0.952 µM.
For `Cc1oc(C[C@H]2CCCCN2C(=O)c2ccccc2-c2ncccn2)nc1C(C)(C)O` [Example 31, (R)-(2-((4-(2-hydroxypropan-2-yl)-5-methyloxazol-2-yl)methyl)piperidin-1-yl)(2-(pyrimidin-2-yl)phenyl)methanone], the half-maximal inhibitory concentration (IC50) in test [1] was 0.047 µM; in test [2] (setting [3]), 0.076 µM.
Take `Cc1oc(C[C@H]2CCCCN2C(=O)c2ccccc2C2CC2(F)F)nc1C(C)(C)O` (stereo partly drawn) [Example 27, (2-(2,2-difluorocyclopropyl)phenyl)((R)-2-((4-(2-hydroxypropan-2-yl)-5-methyloxazol-2-yl)methyl)piperidin-1-yl)methanone]: the 50% inhibitory concentration (IC50) in test [1] was found to be 0.038 µM; in test [2] (setting [3]), 0.473 µM.
The matching figures for `Cc1oc(C[C@H]2CCCCN2C(=O)c2ccccc2-n2ncnn2)nc1C(C)(C)O` [Example 28, (R)-(2-(2H-tetrazol-2-yl)phenyl)(2-((4-(2-hydroxypropan-2-yl)-5-methyloxazol-2-yl)methyl)piperidin-1-yl)methanone]: 0.152 µM and 0.486 µM.
The matching figures for `Cc1oc(C[C@H]2CCCCN2C(=O)c2nccnc2-c2ccccn2)nc1C(C)(C)O` [Example 22, (R)-(2-((4-(2-hydroxypropan-2-yl)-5-methyloxazol-2-yl)methyl)piperidin-1-yl)(3-(pyridin-2-yl)pyrazin-2-yl)methanone]: 0.558 µM and 2.93 µM.
On to `CCOc1ccccc1C(=O)N1CCCC[C@@H]1Cc1nc(C(C)(C)O)c(C)o1` [Example 8, (R)-(2-ethoxyphenyl)(2-((4-(2-hydroxypropan-2-yl)-5-methyloxazol-2-yl)methyl)piperidin-1-yl)methanone], for which the IC50 in test [1] was determined as 0.028 µM; in test [2] (setting [3]), 0.256 µM.
On the same counts, the results for `Cc1oc(C[C@H]2CCCCN2C(=O)c2ccccc2CC(F)(F)F)nc1C(C)(C)O` [Example 18, (R)-(2-((4-(2-hydroxypropan-2-yl)-5-methyloxazol-2-yl)methyl)piperidin-1-yl)(2-(2,2,2-trifluoroethyl)phenyl)-methanone] are 0.118 µM and 1.69 µM.
The matching figures for `Cc1oc(C[C@H]2CCCCN2C(=O)c2ncccc2-n2nccn2)nc1C(C)(C)O` [Example 21, (R)-(3-(2H-1,2,3-triazol-2-yl)pyridin-2-yl)(2-((4-(2-hydroxypropan-2-yl)-5-methyloxazol-2-yl)methyl)piperidin-1-yl)methanone]: 0.225 µM and 1.85 µM.
In the case of `COc1ccc(C(=O)N2CCCC[C@@H]2Cc2nc(C(C)(C)O)c(C)o2)c(C2CC2)n1` [Example 19, (R)-(2-cyclopropyl-6-methoxypyridin-3-yl)(2-((4-(2-hydroxypropan-2-yl)-5-methyloxazol-2-yl)methyl)piperidin-1-yl)methanone], the values for the IC50 in test [1] and in test [2] (setting [3]) were 0.503 µM and 2.31 µM, respectively.
On the same counts, the results for `Cc1oc(C[C@H]2CCCCN2C(=O)c2ccccc2-n2cccn2)nc1C(C)(C)O` [Example 10, (R)-(2-(1H-pyrazol-1-yl)phenyl)(2-((4-(2-hydroxypropan-2-yl)-5-methyloxazol-2-yl)methyl)piperidin-1-yl)methanone] are 0.051 µM and 0.129 µM.
The matching figures for `Cc1oc(C[C@H]2CCCCN2C(=O)c2ccccc2OC(F)F)nc1C(C)(C)O` [Example 15, (R)-(2-(difluoromethoxy)phenyl)(2-((4-(2-hydroxypropan-2-yl)-5-methyloxazol-2-yl)methyl)piperidin-1-yl)methanone]: 0.098 µM and 1.09 µM.
The matching figures for `Cc1oc(C[C@H]2CCCCN2C(=O)c2cccnc2OCC(F)(F)F)nc1C(C)(C)O` [Example 5, (R)-(2-((4-(2-hydroxypropan-2-yl)-5-methyloxazol-2-yl)methyl)piperidin-1-yl)(2-(2,2,2-trifluoroethoxy)pyridin-3-yl)methanone]: 0.019 µM and 0.162 µM.
As to `Cc1ccc(-n2nccn2)c(C(=O)N2CCCC[C@@H]2Cc2nc(C(C)(C)O)c(C)o2)c1` [Example 30, (R)-(2-((4-(2-hydroxypropan-2-yl)-5-methyloxazol-2-yl)methyl)piperidin-1-yl)(5-methyl-2-(2H-1,2,3-triazol-2-yl)phenyl)methanone], the IC50 was 0.046 µM in test [1] and 0.05 µM in test [2] (setting [3]).
`Cc1oc(C[C@H]2CCCCN2C(=O)c2cccnc2CC(F)(F)F)nc1C(C)(C)O` [Example 11, (R)-(2-((4-(2-hydroxypropan-2-yl)-5-methyloxazol-2-yl)methyl)piperidin-1-yl)(2-(2,2,2-trifluoroethyl)pyridin-3-yl)methanone]: the IC50 in test [2] (setting [3]) is > 10 µM.

As a reminder, the IC50 is the midpoint of a concentration-inhibition curve.

For the origin of these results see patent US9920038B2, “Methyl oxazole orexin receptor antagonists” (MERCK SHARP & DOHME CORP., priority 2014, dated 2018).
